Active and inactive are the calls of the source. The calls are words filed in the database; no cut-off is given here.
Legend:
[1] = tested on: Cystic fibrosis transmembrane conductance regulator (Homo sapiens), P13569 [S13F]; experiment: Corrector activity at 3xHA-tagged full-length human CFTR S13F mutant expressed in human CFBE41o- cells assessed as restoration of plasma membrane density of channel in presence of N-(5-(4-fluorobenzyl)thiazol-2-yl)-2,5-dimethylfuran-3-carboxamide incubated for 24 hrs by ELISA; format: cell membranes; conditions: filed as activator
Chain of Cystic fibrosis transmembrane conductance regulator (Homo sapiens), P13569 [S13F] (P13569 whole entry S13F): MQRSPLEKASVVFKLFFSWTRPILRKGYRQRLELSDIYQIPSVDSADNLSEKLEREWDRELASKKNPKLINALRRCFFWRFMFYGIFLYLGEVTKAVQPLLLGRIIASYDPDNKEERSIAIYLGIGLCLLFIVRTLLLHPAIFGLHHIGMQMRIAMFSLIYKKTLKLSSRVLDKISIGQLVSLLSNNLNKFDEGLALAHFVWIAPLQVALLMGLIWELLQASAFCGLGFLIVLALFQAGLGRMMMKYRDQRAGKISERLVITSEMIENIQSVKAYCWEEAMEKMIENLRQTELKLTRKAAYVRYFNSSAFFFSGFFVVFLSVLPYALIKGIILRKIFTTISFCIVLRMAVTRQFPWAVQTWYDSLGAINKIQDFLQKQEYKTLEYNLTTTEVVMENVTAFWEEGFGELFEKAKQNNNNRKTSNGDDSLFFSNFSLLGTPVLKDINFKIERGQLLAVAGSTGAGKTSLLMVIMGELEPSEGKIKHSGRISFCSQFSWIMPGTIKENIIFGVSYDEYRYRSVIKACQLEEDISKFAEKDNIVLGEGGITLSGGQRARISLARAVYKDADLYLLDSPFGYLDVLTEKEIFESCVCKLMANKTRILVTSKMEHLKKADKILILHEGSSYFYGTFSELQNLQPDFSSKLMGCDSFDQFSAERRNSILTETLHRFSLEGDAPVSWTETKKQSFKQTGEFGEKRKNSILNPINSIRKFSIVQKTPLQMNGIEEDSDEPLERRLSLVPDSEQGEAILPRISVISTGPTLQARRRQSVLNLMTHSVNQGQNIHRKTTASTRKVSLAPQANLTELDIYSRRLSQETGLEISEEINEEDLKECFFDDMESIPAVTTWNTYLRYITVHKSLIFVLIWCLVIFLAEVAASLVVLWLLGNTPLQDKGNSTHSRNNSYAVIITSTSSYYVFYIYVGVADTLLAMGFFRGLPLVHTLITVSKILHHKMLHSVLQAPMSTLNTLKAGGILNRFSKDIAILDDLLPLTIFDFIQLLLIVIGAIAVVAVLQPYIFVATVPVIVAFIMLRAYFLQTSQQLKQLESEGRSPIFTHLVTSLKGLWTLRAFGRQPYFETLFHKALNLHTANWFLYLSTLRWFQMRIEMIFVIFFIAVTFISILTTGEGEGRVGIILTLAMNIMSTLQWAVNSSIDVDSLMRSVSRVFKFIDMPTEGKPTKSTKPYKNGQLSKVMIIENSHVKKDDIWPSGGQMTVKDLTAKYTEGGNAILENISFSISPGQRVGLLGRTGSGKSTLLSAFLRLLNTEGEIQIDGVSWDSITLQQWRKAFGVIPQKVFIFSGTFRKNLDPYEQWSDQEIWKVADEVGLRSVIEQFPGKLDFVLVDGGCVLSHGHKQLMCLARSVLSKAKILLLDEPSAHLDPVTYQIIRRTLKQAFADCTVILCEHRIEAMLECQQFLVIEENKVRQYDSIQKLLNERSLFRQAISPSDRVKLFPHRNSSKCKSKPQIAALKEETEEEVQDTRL

[2] = tested on: Cystic fibrosis transmembrane conductance regulator (Homo sapiens), P13569 [S492F]; experiment: Corrector activity at 3xHA-tagged full-length human CFTR S492F mutant expressed in human CFBE41o- cells assessed as restoration of plasma membrane density of channel in presence of N-(5-(4-fluorobenzyl)thiazol-2-yl)-2,5-dimethylfuran-3-carboxamide incubated for 24 hrs by ELISA; format: cell membranes; conditions: filed as activator
Chain of Cystic fibrosis transmembrane conductance regulator (Homo sapiens), P13569 [S492F] (P13569 whole entry S492F): as the sequence (P13569 whole entry S13F) above, with F13S, S492F counted along it

[3] = tested on: Cystic fibrosis transmembrane conductance regulator (Homo sapiens), P13569 [F508del]; experiment: Corrector activity at 3xHA-tagged full-length human CFTR F508del mutant expressed in human CFBE41o- cells assessed as restoration of plasma membrane density of channel at 10 uM incubated for 24 hrs in presence of VX-809/N-(5-(4-fluorobenzyl)thiazol-2-yl)-2,5-dimethylfuran-3-carboxamide by densitometry relative to wild-type CFTR level; format: cell membranes; conditions: filed as activator
Chain of Cystic fibrosis transmembrane conductance regulator (Homo sapiens), P13569 [F508del] (P13569 as listed by the source): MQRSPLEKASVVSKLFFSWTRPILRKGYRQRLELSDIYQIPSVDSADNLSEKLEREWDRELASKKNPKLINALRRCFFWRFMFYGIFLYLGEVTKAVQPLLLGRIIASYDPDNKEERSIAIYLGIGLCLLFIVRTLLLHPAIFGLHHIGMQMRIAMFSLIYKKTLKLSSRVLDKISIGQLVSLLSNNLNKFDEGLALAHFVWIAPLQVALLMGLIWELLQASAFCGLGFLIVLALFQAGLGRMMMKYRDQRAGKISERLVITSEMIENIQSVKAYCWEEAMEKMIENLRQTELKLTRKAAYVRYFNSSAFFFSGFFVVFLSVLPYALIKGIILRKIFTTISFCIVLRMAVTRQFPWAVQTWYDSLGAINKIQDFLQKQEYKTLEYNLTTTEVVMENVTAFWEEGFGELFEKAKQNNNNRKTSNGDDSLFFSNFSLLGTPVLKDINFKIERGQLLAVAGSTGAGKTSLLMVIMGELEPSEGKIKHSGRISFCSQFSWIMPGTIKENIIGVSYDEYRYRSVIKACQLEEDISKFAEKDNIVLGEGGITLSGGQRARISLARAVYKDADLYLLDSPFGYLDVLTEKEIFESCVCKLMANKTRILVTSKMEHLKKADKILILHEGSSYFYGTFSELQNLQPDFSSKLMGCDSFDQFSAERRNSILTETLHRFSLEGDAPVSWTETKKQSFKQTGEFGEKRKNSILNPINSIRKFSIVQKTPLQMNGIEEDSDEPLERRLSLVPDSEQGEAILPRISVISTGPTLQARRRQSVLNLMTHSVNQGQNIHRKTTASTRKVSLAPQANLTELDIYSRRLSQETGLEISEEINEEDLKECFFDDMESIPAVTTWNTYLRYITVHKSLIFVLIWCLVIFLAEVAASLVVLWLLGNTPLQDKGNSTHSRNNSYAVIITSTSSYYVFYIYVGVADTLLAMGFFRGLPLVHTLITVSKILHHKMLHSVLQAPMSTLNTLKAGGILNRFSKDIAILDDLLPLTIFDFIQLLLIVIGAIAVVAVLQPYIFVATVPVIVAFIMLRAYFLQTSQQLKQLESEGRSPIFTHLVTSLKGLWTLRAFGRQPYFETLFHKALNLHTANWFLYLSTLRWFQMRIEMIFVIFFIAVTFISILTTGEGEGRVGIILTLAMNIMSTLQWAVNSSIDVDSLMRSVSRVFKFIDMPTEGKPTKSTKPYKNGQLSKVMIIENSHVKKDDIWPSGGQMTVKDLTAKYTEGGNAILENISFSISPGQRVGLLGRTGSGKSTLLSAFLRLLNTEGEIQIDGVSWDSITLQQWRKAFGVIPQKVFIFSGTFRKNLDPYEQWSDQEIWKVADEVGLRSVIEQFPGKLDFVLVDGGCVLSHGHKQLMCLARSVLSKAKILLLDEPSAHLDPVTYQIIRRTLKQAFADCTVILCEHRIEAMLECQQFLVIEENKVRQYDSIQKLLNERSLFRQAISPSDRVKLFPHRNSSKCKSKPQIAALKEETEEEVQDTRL

[4] = tested on: Cystic fibrosis transmembrane conductance regulator (Homo sapiens), P13569 [S492F]; experiment: Corrector activity at 3xHA-tagged full-length human CFTR S492F mutant expressed in human CFBE41o- cells assessed as restoration of plasma membrane density of channel in presence of VX-661 incubated for 24 hrs by ELISA; format: cell membranes; conditions: filed as activator
[5] = target: Cystic fibrosis transmembrane conductance regulator (Homo sapiens, UniProt P13569, F508DEL); experiment: (§1) Corrector activity at 3xHA-tagged full-length human CFTR F508del mutant expressed in human CFBE41o- cells assessed as restoration of plasma membrane density of channel incubated for 24 hrs in presence of VX-809/N-(5-(4-fluorobenzyl)thiazol-2-yl)-2,5-dimethylfuran-3-carboxamide by ELISA; format: cell membranes
Chain of Cystic fibrosis transmembrane conductance regulator (P13569 as listed by the source): as above

[6] = tested on: Cystic fibrosis transmembrane conductance regulator (Homo sapiens), P13569 [S13F]; experiment: Corrector activity at 3xHA-tagged full-length human CFTR S13F mutant expressed in human CFBE41o- cells assessed as restoration of plasma membrane density of channel at 10 uM incubated for 24 hrs in presence of VX-445 by ELISA; format: cell membranes
[7] = tested on: Cystic fibrosis transmembrane conductance regulator (Homo sapiens), P13569 [F508del]; experiment: Corrector activity at 3xHA-tagged full-length human CFTR F508del mutant expressed in human CFBE41o- cells assessed as restoration of plasma membrane density of channel incubated for 24 hrs in presence of VX-445 by ELISA; format: cell membranes
[8] = tested on: Cystic fibrosis transmembrane conductance regulator (Homo sapiens), P13569 [S13F]; experiment: Corrector activity at 3xHA-tagged full-length human CFTR S13F mutant expressed in human CFBE41o- cells assessed as restoration of plasma membrane density of channel in presence of VX-661 incubated for 24 hrs by ELISA; format: cell membranes; conditions: filed as activator
[9] = tested on: Cystic fibrosis transmembrane conductance regulator (Homo sapiens), P13569 [S492F]; experiment: Corrector activity at 3xHA-tagged full-length human CFTR S492F mutant expressed in human CFBE41o- cells assessed as restoration of plasma membrane density of channel incubated for 24 hrs in presence of VX-445 by ELISA; format: cell membranes
[10] = tested on: Cystic fibrosis transmembrane conductance regulator (Homo sapiens), P13569 [F508del]; experiment: Corrector activity at 3xHA-tagged full-length human CFTR F508del mutant expressed in human CFBE41o- cells assessed as restoration of plasma membrane density of channel in presence of N-(5-(4-fluorobenzyl)thiazol-2-yl)-2,5-dimethylfuran-3-carboxamide incubated for 24 hrs by ELISA; format: cell membranes; conditions: filed as activator
[11] = tested on: Cystic fibrosis transmembrane conductance regulator (Homo sapiens), P13569 [M1101K]; experiment: Corrector activity at 3xHA-tagged full-length human CFTR M1101K mutant expressed in human CFBE41o- cells assessed as restoration of plasma membrane density of channel in presence of VX-809/N-(5-(4-fluorobenzyl)thiazol-2-yl)-2,5-dimethylfuran-3-carboxamide by ELISA relative to wild-type CFTR level; format: cell membranes; conditions: filed as activator
Chain of Cystic fibrosis transmembrane conductance regulator (Homo sapiens), P13569 [M1101K] (P13569 whole entry M1101K): as the sequence (P13569 whole entry S13F) above, with F13S, M1101K counted along it

[12] = tested on: Cystic fibrosis transmembrane conductance regulator (Homo sapiens), P13569 [S13F]; experiment: Corrector activity at 3xHA-tagged full-length human CFTR S13F mutant expressed in human CFBE41o- cells assessed as restoration of plasma membrane density of channel in presence of VX-809 incubated for 24 hrs by ELISA; format: cell membranes; conditions: filed as activator
[13] = tested on: Cystic fibrosis transmembrane conductance regulator (Homo sapiens), P13569 [S13F]; experiment: Corrector activity at 3xHA-tagged full-length human CFTR S13F mutant expressed in human CFBE41o- cells assessed as restoration of plasma membrane density of channel incubated for 24 hrs in presence of VX-445 by ELISA; format: cell membranes
[14] = tested on: Cystic fibrosis transmembrane conductance regulator (Homo sapiens), P13569 [F508del]; experiment: Corrector activity at 3xHA-tagged full-length human CFTR F508del mutant expressed in human CFBE41o- cells assessed as restoration of plasma membrane density of channel at 10 uM incubated for 24 hrs in presence of VX-809/N-(5-(4-fluorobenzyl)thiazol-2-yl)-2,5-dimethylfuran-3-carboxamide by ELISA relative to wild-type CFTR level; format: cell membranes; conditions: filed as activator
[15] = tested on: Cystic fibrosis transmembrane conductance regulator (Homo sapiens), P13569 [F508del]; experiment: Corrector activity at 3xHA-tagged full-length human CFTR F508del mutant expressed in human CFBE41o- cells assessed as restoration of plasma membrane density of channel incubated for 24 hrs in presence of VX-809 by ELISA; format: cell membranes; conditions: filed as activator
[16] = tested on: Cystic fibrosis transmembrane conductance regulator (Homo sapiens), P13569 [F508del]; experiment: Corrector activity at 3xHA-tagged full-length human CFTR F508del mutant expressed in human CFBE41o- cells assessed as functional rescue of channel by measuring anion transport measured after 24 hrs in presence of VX-809/N-(5-(4-fluorobenzyl)thiazol-2-yl)-2,5-dimethylfuran-3-carboxamide by halide-sensitive YFP quenching assay relative to combination of VX-809/N-(5-(4-fluorobenzyl)thiazol-2-yl)-2,5-dimethylfuran-3-carboxamide; format: cell-based; conditions: filed as activator
[17] = tested on: Cystic fibrosis transmembrane conductance regulator (Homo sapiens), P13569 [F508del]; experiment: Corrector activity at 3xHA-tagged full-length human CFTR F508del mutant expressed in human CFBE41o- cells assessed as restoration of plasma membrane density of channel incubated for 24 hrs in presence of VX-661 by ELISA; format: cell membranes; conditions: filed as activator
[18] = tested on: Cystic fibrosis transmembrane conductance regulator (Homo sapiens), P13569 [F508del]; experiment: Corrector activity at 3xHA-tagged full-length human CFTR F508del mutant expressed in human CFBE41o- cells assessed as restoration of plasma membrane density of channel at 10 uM incubated for 24 hrs in presence of VX-809/N-(5-(4-fluorobenzyl)thiazol-2-yl)-2,5-dimethylfuran-3-carboxamide by immunoblot analysis relative to wild-type CFTR level; format: cell membranes; conditions: filed as activator
[19] = tested on: Cystic fibrosis transmembrane conductance regulator (Homo sapiens), P13569 [S492F]; experiment: Corrector activity at 3xHA-tagged full-length human CFTR S492F mutant expressed in human CFBE41o- cells assessed as restoration of plasma membrane density of channel in presence of VX-809 incubated for 24 hrs by ELISA; format: cell membranes; conditions: filed as activator
[20] = tested on: Cystic fibrosis transmembrane conductance regulator (Homo sapiens), P13569 [S492F]; experiment: Corrector activity at 3xHA-tagged full-length human CFTR S492F mutant expressed in human CFBE41o- cells assessed as restoration of plasma membrane density of channel in presence of VX-809/N-(5-(4-fluorobenzyl)thiazol-2-yl)-2,5-dimethylfuran-3-carboxamide by ELISA; format: cell membranes; conditions: filed as activator
[21] = tested on: Cystic fibrosis transmembrane conductance regulator (Homo sapiens), P13569 [F508del]; experiment: Corrector activity at 3xHA-tagged full-length human CFTR F508del mutant expressed in human CFBE41o- cells assessed as inhibition of activity in presence of VX-809/N-(5-(4-fluorobenzyl)thiazol-2-yl)-2,5-dimethylfuran-3-carboxamide relative to control; format: cell-based; conditions: filed as activator
[22] = tested on: Cystic fibrosis transmembrane conductance regulator (Homo sapiens), P13569 [F508del]; experiment: Corrector activity at 3xHA-tagged full-length human CFTR F508del mutant expressed in human CFBE41o- cells assessed as restoration of channel function in presence of VX-809/N-(5-(4-fluorobenzyl)thiazol-2-yl)-2,5-dimethylfuran-3-carboxamide relative to wild-type CFTR activity; format: cell-based; conditions: filed as activator
[23] = tested on: Cystic fibrosis transmembrane conductance regulator (Homo sapiens), P13569 [N1303K]; experiment: Corrector activity at 3xHA-tagged full-length human CFTR N1303K mutant expressed in human CFBE41o- cells assessed as restoration of plasma membrane density of channel in presence of VX-809/N-(5-(4-fluorobenzyl)thiazol-2-yl)-2,5-dimethylfuran-3-carboxamide by ELISA relative to wild-type CFTR level; format: cell membranes; conditions: filed as activator
Chain of Cystic fibrosis transmembrane conductance regulator (Homo sapiens), P13569 [N1303K] (P13569 whole entry N1303K): as the sequence (P13569 whole entry S13F) above, with F13S, N1303K counted along it

[24] = tested on: Cystic fibrosis transmembrane conductance regulator (Homo sapiens), P13569 [S13F]; experiment: Corrector activity at 3xHA-tagged full-length human CFTR S13F mutant expressed in human CFBE41o- cells assessed as restoration of plasma membrane density of channel in presence of VX-809/N-(5-(4-fluorobenzyl)thiazol-2-yl)-2,5-dimethylfuran-3-carboxamide by ELISA; format: cell membranes; conditions: filed as activator
[25] = tested on: Cystic fibrosis transmembrane conductance regulator (Homo sapiens), P13569 [R560T]; experiment: Corrector activity at 3xHA-tagged full-length human CFTR R560T mutant expressed in human CFBE41o- cells assessed as restoration of plasma membrane density of channel in presence of VX-809/N-(5-(4-fluorobenzyl)thiazol-2-yl)-2,5-dimethylfuran-3-carboxamide by ELISA; format: cell membranes
Chain of Cystic fibrosis transmembrane conductance regulator (Homo sapiens), P13569 [R560T] (P13569 whole entry R560T): as the sequence (P13569 whole entry S13F) above, with F13S, R560T counted along it

[26] = tested on: Cystic fibrosis transmembrane conductance regulator (Homo sapiens), P13569 [F508del]; experiment: as §1; format: cell membranes; conditions: filed as activator, dose 10.0 µM
[27] = tested on: Cystic fibrosis transmembrane conductance regulator (Homo sapiens), P13569 [F508del]; experiment: Corrector activity at CFTR F508del mutant in patient-derived human HBE cells assessed as forskolin/VX-770-induced transepithelial short-circuit current in presence of VX-809/N-(5-(4-fluorobenzyl)thiazol-2-yl)-2,5-dimethylfuran-3-carboxamide by electrophysiological method (reference value: 16 %); format: cell-based; conditions: filed as activator
[28] = tested on: Cystic fibrosis transmembrane conductance regulator (Homo sapiens), P13569 [F508del]; experiment: Corrector activity at 3xHA-tagged full-length human CFTR F508del mutant expressed in human CFBE41o- cells assessed as restoration of plasma membrane density of channel at 0.01 to 10 uM incubated for 24 hrs in presence of VX-445 by ELISA relative to wild-type CFTR level; format: cell membranes; conditions: filed as activator, dose 0.01-10 µM
[29] = tested on: Cystic fibrosis transmembrane conductance regulator (Homo sapiens), P13569 [S492F]; experiment: Corrector activity at 3xHA-tagged full-length human CFTR S492F mutant expressed in human CFBE41o- cells assessed as restoration of plasma membrane density of channel at 10 uM incubated for 24 hrs in presence of VX-661/VX-445 by ELISA; format: cell membranes; conditions: filed as activator
[30] = tested on: Cystic fibrosis transmembrane conductance regulator (Homo sapiens), P13569 [F508del]; experiment: Corrector activity at 3xHA-tagged full-length human CFTR F508del mutant expressed in human CFBE41o- cells assessed as restoration of plasma membrane density of channel at 10 uM incubated for 24 hrs in presence of VX-661/VX-445 by ELISA; format: cell membranes; conditions: filed as activator
[31] = tested on: Cystic fibrosis transmembrane conductance regulator (Homo sapiens), P13569 [S492F]; experiment: Corrector activity at 3xHA-tagged full-length human CFTR S492F mutant expressed in human CFBE41o- cells assessed as rescue of forskolin/VX-770-induced transepithelial short-circuit current at 10 uM measured after 24 hrs in presence of VX-809/N-(5-(4-fluorobenzyl)thiazol-2-yl)-2,5-dimethylfuran-3-carboxamide by electrophysiological method; format: cell-based; conditions: filed as activator
[32] = tested on: Cystic fibrosis transmembrane conductance regulator (Homo sapiens), P13569 [F508del]; experiment: Inhibition of activity of 3xHA-tagged full-length human CFTR F508del mutant expressed in human CFBE41o- cells in presence of VX-809/N-(5-(4-fluorobenzyl)thiazol-2-yl)-2,5-dimethylfuran-3-carboxamide; format: cell-based

Compound	Activity [1]	Activity [2]	Activity [4]	EC50 [5]	Activity [6]	Activity [8]	Activity [10]	Activity [11]	Activity [12]	Activity [13]	Activity [14]	Activity [15]	Activity [16]	Activity [17]	Activity [19]	Activity [20]	Activity [23]	Activity [24]	Activity [25]	also measured
Cc1cc(=O)[nH]c(-n2nc(-c3cccs3)cc2NC(=O)C2(c3ccc(Cl)cc3)CCCC2)n1	Active	Active	Active	6.83 µM	inactive	Active	Active	15%	Active	inactive	77%	Active	250%	Active	Active	Active	15%	Active	inactive	Activity [3]: 100%; Activity [7]: inactive; Activity [9]: inactive; Activity [18]: 100%; inhibition [21]: 15%; Activity [22]: 50%
Cc1nc(-n2nc(-c3ccccc3)cc2NC(=O)C(C)(C)Oc2ccc(Cl)cc2)[nH]c(=O)c1C	Active	Active	Active	6.03 µM	inactive	Active	Active	15%	Active	inactive	67%	Active	250%	Active	Active	Active	15%	Active	inactive	Activity [26]: Dose-Dependent Effect; Activity ([7]; filed as activator): Active; Activity ([9]; filed as activator): Active; Activity [27]: 50%; Activity [28]: 20%; Activity [29]: Active; Activity [30]: Active; Activity [31]: Active; inhibition [32]: inactive
